# Test system: TNF synthesis in human PBMC
# Experiment: Human PBMC TNF Synthesis Assay
# Type: cell-based
# Conditions: LPS-stimulated human PBMC, overnight incubation, TNF ELISA; read-out: TNF inhib.
# Experimental: Human PBMC TNF Synthesis Assay
# Human PBMC were obtained by from a healthy human donor leuko pak. Typically, all donors were pre-screened for STD, HIV and have been given a physical by a physician. One to two ampoules were thawed at 37° C. and then resuspended in 45 to 85 mL of RPMI+10% FBS to a final concentration of 2.5×10^6 cells/mL. Resuspended cells were filtered to remove any large clumps.
# Prepare compounds for addition to cells: All compounds were DMSO stocks at 20 mM. Working stock for cell testing were prepared as 4× concentrated material in RPMI+10% FBS. Compounds were added to a polypropylene block and then diluted with the appropriate amount of RPMI+10% FBS. Typically 2.6 μL of 20 mM stock was diluted to 650 μL final volume to yield an 80 μM starting concentration in the stocks. RPMI was added to DMSO stock by pipetting into the tube or block. The compounds were then serial diluted with RPMI+10% FBS. The final DMSO concentrations were not greater than 0.5% in the assay.
# Compounds were added to the cells as 4× working stock. 50 μL of compound was prepared above is added to the cells and re-equilibrated in a humidified 5% CO2 incubator at 37° C. for 30 minutes.
# A stock of LPS was prepared using RPMI+10% FBS. To prepare the stock, 2.8 μL of LPS (5 mg/mL; Sigma Cat #L3024) was added to 35 mL of media. 50 μL of the LPS in media was added to the cells. Control cultures without LPS received only RPMI+10% FBS. After an overnight incubation at 37° C., the cell culture supernatant was harvested and stored in a polypropylene 96 well plate.
# Samples were tested for TNF as per the manufacturer's instructions (TNF ELISA; R&D Systems, Cat #DY210). The samples were serially diluted with PBS+1% BSA to the appropriate dilution condition for the cell prep, typically a 1:4 or 1:6 dilution.
row,Structure (SMILES),IC50
1,"CCn1c(=O)c2cnc3c(OC)cccc3c2n(CC(C)C)c1=O [Example 18, 3-Ethyl-1-isobutyl-7-methoxy-1H-pyrimido[5,4-c]quinoline-2,4-dione]",1100 nM
2,"COc1cccc2c1ncc1c(=O)n(-c3cccc(SC)c3)c(=O)n(C3CCCC3)c12 [Example 111, 1-Cyclopentyl-7-methoxy-3-(3-methylsulfanyl-phenyl)-1H-pyrimido[5,4-c]quinoline-2,4-dione]",74 nM
3,"COc1cccc2c1ncc1c(=O)n(-c3cccc(Cl)c3)c(=O)n(C3CCC(C)CC3)c12 (stereo not shown) [Example 72, 3-(3-Chloro-phenyl)-7-methoxy-1-(4-methyl-cyclohexyl)-1H-pyrimido[5,4-c]quinoline-2,4-dione]",4 nM
4,"COc1cccc2c1ncc1c(=O)n(-c3cccc(Cl)c3)c(=O)n(C3CCN(S(=O)(=O)C(C)C)CC3)c12 [Example 93, 3-(3-Chloro-phenyl)-7-methoxy-1-[1-(propane-2-sulfonyl)-piperidin-4-yl]-1H-pyrimido[5,4-c]quinoline-2,4-dione]",0.4 nM
5,"COc1cccc2c1ncc1c(=O)n(-c3cccc(Cl)c3)c(=O)n(C3CCCCC3)c12 [Example 106, 3-(3-Chloro-phenyl)-1-cyclohexyl-7-methoxy-1H-pyrimido[5,4-c]quinoline-2,4-dione]",4 nM
6,"COc1cccc2c1ncc1c(=O)n(-c3cccs3)c(=O)n(C3CCCC3)c12 [Example 10, 1-Cyclopentyl-7-methoxy-3-thiophen-2-yl-1H-pyrimido[5,4-c]quinoline-2,4-dione]",410 nM
7,"CCn1c(=O)c2cnc3c(OC)cccc3c2n(-c2ccc(OC)c(OC)c2)c1=O [Example 4, 1-(3,4-Dimethoxy-phenyl)-3-ethyl-7-methoxy-1H-pyrimido[5,4-c]quinoline-2,4-dione]",14200 nM
8,"CCn1c(=O)c2cnc3c(OC)cccc3c2n(C2CCC(C)CC2)c1=O (stereo not shown) [Example 45, 3-Ethyl-7-methoxy-1-(4-methyl-cyclohexyl)-1H-pyrimido[5,4-c]quinoline-2,4-dione]",200 nM
9,"COc1cccc2c1ncc1c(=O)n(C(C)C)c(=O)n(C3CCCC3)c12 [Example 5, 1-Cyclopentyl-3-isopropyl-7-methoxy-1H-pyrimido[5,4-c]quinoline-2,4-dione]",270 nM
10,"COc1cccc2c1ncc1c(=O)n(-c3cccc(Cl)c3)c(=O)n(C3CCN(C(C)=O)CC3)c12 [Example 90, 1-(1-Acetyl-piperidin-4-yl)-3-(3-chloro-phenyl)-7-methoxy-1H-pyrimido[5,4-c]quinoline-2,4-dione]",2 nM
11,"CCc1cccc(-n2c(=O)c3cnc4c(OC)cccc4c3n(C3CCCC3)c2=O)c1 [Example 75, 1-Cyclopentyl-3-(3-ethyl-phenyl)-7-methoxy-1H-pyrimido[5,4-c]quinoline-2,4-dione]",6 nM
12,"COc1cccc2c1ncc1c(=O)n(-c3cccc(Cl)c3)c(=O)n(C3CCN(C(=O)NC(C)C)CC3)c12 [Example 98, 4-[3-(3-Chloro-phenyl)-7-methoxy-2,4-dioxo-3,4-dihydro-2H-pyrimido[5,4-c]quinolin-1-yl]-piperidine-1-carboxylic acid isopropylamide]",0.3 nM
13,"COc1cccc2c1ncc1c(=O)n(-c3cccc(S(C)(=O)=O)c3)c(=O)n(C3CCCC3)c12 [Example 112, 1-Cyclopentyl-3-(3-methanesulfonyl-phenyl)-7-methoxy-1H-pyrimido[5,4-c]quinoline-2,4-dione]",280 nM
14,"COc1cccc2c1ncc1c(=O)n(-c3ccccc3Cl)c(=O)n(C3CCC(C)CC3)c12 (stereo not shown) [Example 99, 3-(2-Chloro-phenyl)-7-methoxy-1-(4-methyl-cyclohexyl)-1H-pyrimido[5,4-c]quinoline-2,4-dione]",20 nM
15,"CCn1c(=O)c2cnc3c(C)cccc3c2n(C2CCCC2)c1=O [Example 41, 1-Cyclopentyl-3-ethyl-7-methyl-1H-pyrimido[5,4-c]quinoline-2,4-dione]",500 nM
16,"CCn1c(=O)c2cnc3c(OC(F)(F)F)cccc3c2n(C2CCCC2)c1=O [Example 34, 1-Cyclopentyl-3-ethyl-7-trifluoromethoxy-1H-pyrimido[5,4-c]quinoline-2,4-dione]",3600 nM
17,"CCn1c(=O)c2cnc3c(OC)cc(Cl)cc3c2n(C2CCCC2)c1=O [Example 28, 9-Chloro-1-cyclopentyl-3-ethyl-7-methoxy-1H-pyrimido[5,4-c]quinoline-2,4-dione]",3500 nM
18,"COc1cccc2c1ncc1c(=O)n(-c3ccc4c(c3)OCO4)c(=O)n(C3CCN(C(=O)OC(C)(C)C)CC3)c12 [Example 107, 4-(3-Benzo[1,3]dioxol-5-yl-7-methoxy-2,4-dioxo-3,4-dihydro-2H-pyrimido[5,4-c]quinolin-1-yl)-piperidine-1-carboxylic acid tert-butyl ester]",1 nM
19,"CCCn1c(=O)n(CC)c(=O)c2cnc3c(OC)cccc3c21 [Example 16, 3-Ethyl-7-methoxy-1-propyl-1H-pyrimido[5,4-c]quinoline-2,4-dione]",680 nM

# Source: patent US10085990B2, “Tricyclic compounds as modulators of TNF-α synthesis and as PDE4 inhibitors” (vTv Therapeutics LLC, priority 2008, dated 2018)
